Patent publication US9334246B2, “Substituted triazines for malaria treatment and chemoprophylaxis” (The United States of America, as represented by the …, priority 2013, dated 2016)

Tests used:
Assay type in all cases: cell-based, Plasmodium falciparum
P. falciparum D6 = experiment: Malaria SYBR Green Fluorescence Assay, D6 strain
P. falciparum W2 = experiment: Malaria SYBR Green Fluorescence Assay, W2 strain
P. falciparum C235 = experiment: Malaria SYBR Green Fluorescence Assay, C235 strain

Structure (SMILES)	D6 (SYBR Green Assay IC50) (P. falciparum D6) [µg/mL]	W2 (SYBR Green Assay IC50) (P. falciparum W2) [µg/mL]	C235 (SYBR Green Assay IC50) (P. falciparum C235) [µg/mL]
CC(C)N1CCC(CNc2nc(-c3ccc(S(C)(=O)=O)cc3)nc(C(Cl)(Cl)Cl)n2)CC1 [Cmpd 491]	0.048	0.018	0.034
CC(C)N1CCC(CNc2nc(-c3ccc(C(Cl)(Cl)Cl)cc3)nc(C(Cl)(Cl)Cl)n2)CC1 [Cmpd 492]	0.095	0.033	0.052
CC(C)N1CCC(CNc2nc(-c3ccc4ccccc4c3)nc(C(Cl)(Cl)Cl)n2)CC1 [Cmpd 494]	0.038	0.018	0.023
CC(C)N1CCC(CNc2nc(-c3cc(Cl)cc(Cl)c3)nc(C(Cl)(Cl)Cl)n2)CC1 [Cmpd 495]	0.036	0.01	0.013
CC(C)N1CCC(CNc2nc(-c3ccc(-c4ccccc4)cc3)nc(C(Cl)(Cl)Cl)n2)CC1 [Cmpd 496]	0.029	0.015	0.014
CC(C)N1CCC(CNc2nc(-c3ccccc3[N+](=O)[O-])nc(C(Cl)(Cl)Cl)n2)CC1 [Cmpd 497]	0.913	0.176	0.469
COc1ccc(-c2nc(NCC3CCN(C(C)C)CC3)nc(C(Cl)(Cl)Cl)n2)c2ccccc12 [Cmpd 498]	0.247	0.066	0.125
COc1ccc(-c2nc(NCC3CCN(C(C)C)CC3)nc(C(Cl)(Cl)Cl)n2)cc1OC [Cmpd 501]	0.362	0.094	0.241
COc1cc(OC)cc(-c2nc(NCC3CCN(C(C)C)CC3)nc(C(Cl)(Cl)Cl)n2)c1 [Cmpd 502]	0.127	0.028	0.052
Cc1ccc(-c2nc(NCC3CCN(C)CC3)nc(C(Cl)(Cl)Cl)n2)cc1 [Cmpd 503]	0.044	0.014	0.026
CN1CCC(CNc2nc(-c3ccc(Cl)c(Cl)c3)nc(C(Cl)(Cl)Cl)n2)CC1 [Cmpd 505]	0.029	0.017	0.02
CN1CCC(CNc2nc(-c3ccc(C(C)(C)C)cc3)nc(C(Cl)(Cl)Cl)n2)CC1 [Cmpd 507]	0.043	0.039	0.043
CN1CCC(CNc2nc(-c3cccc(C(F)(F)F)c3)nc(C(Cl)(Cl)Cl)n2)CC1 [Cmpd 508]	0.034	0.013	0.022
CSc1ccc(-c2nc(NCC3CCN(C)CC3)nc(C(Cl)(Cl)Cl)n2)cc1 [Cmpd 509]	0.294	0.098	0.167
CN1CCC(CNc2nc(-c3ccc(S(C)(=O)=O)cc3)nc(C(Cl)(Cl)Cl)n2)CC1 [Cmpd 510]	0.416	0.088	0.273
CN1CCC(CNc2nc(-c3ccc(C(Cl)(Cl)Cl)cc3)nc(C(Cl)(Cl)Cl)n2)CC1 [Cmpd 511]	0.077	0.034	0.056
CN1CCC(CNc2nc(-c3ccccc3)nc(C(Cl)(Cl)Cl)n2)CC1 [Cmpd 512]	0.103	0.03	0.057
CN1CCC(CNc2nc(-c3cc(Cl)cc(Cl)c3)nc(C(Cl)(Cl)Cl)n2)CC1 [Cmpd 514]	0.079	0.026	0.028
CN1CCC(CNc2nc(-c3ccccc3[N+](=O)[O-])nc(C(Cl)(Cl)Cl)n2)CC1 [Cmpd 516]	0.292	0.083	0.181

Structure (SMILES)	D6 (SYBR Green Assay IC50) (P. falciparum D6) [µg/mL]	W2 (SYBR Green Assay IC50) (P. falciparum W2) [µg/mL]	C235 (SYBR Green Assay IC50) (P. falciparum C235) [µg/mL]
COc1ccc(-c2nc(NCC3CCN(C)CC3)nc(C(Cl)(Cl)Cl)n2)c2ccccc12 [Cmpd 517]	0.023	0.007	0.012
COc1ccc(-c2nc(NCC3CCN(C)CC3)nc(C(Cl)(Cl)Cl)n2)cc1OC [Cmpd 520]	0.082	0.019	0.045
COc1cc(OC)cc(-c2nc(NCC3CCN(C)CC3)nc(C(Cl)(Cl)Cl)n2)c1 [Cmpd 521]	0.045	0.014	0.023
CN1CCCC1CCNc1nc(-c2ccccc2[N+](=O)[O-])nc(C(Cl)(Cl)Cl)n1 (stereo not drawn) [Cmpd 524]	0.108	0.028	0.07
COc1cc(OC)cc(-c2nc(N3CCCNCC3)nc(C(Cl)(Cl)Cl)n2)c1 [Cmpd 525]	0.043	0.033	0.041
COc1cc(OC)cc(-c2nc(NC3CC(C)(C)NC(C)(C)C3)nc(C(Cl)(Cl)Cl)n2)c1 [Cmpd 527]	0.026	0.021	0.024
CCN1CCCC(Nc2nc(-c3cc(OC)cc(OC)c3)nc(C(Cl)(Cl)Cl)n2)C1 (stereo not drawn) [Cmpd 528]	0.035	0.023	0.033
COc1cc(OC)cc(-c2nc(NCC3(N)CCOCC3)nc(C(Cl)(Cl)Cl)n2)c1 [Cmpd 529]	0.059	0.055	0.055
COc1cc(OC)cc(-c2nc(NCC3(N)CCCC3)nc(C(Cl)(Cl)Cl)n2)c1 [Cmpd 530]	0.013	0.014	0.013
FC(F)(F)c1cccc(-c2nc(NCCc3cnccn3)nc(C(Cl)(Cl)Cl)n2)c1 [Cmpd 539]	0.325	0.098	0.27
ClC(Cl)(Cl)c1nc(NCCc2cnccn2)nc(-c2ccccc2)n1 [Cmpd 540]	0.151	0.088	0.213
CC1(C)C=Cc2cc(-c3nc(NCCc4cnccn4)nc(C(Cl)(Cl)Cl)n3)ccc2O1 [Cmpd 545]	0.338	0.147	0.3
CN1CCCN(c2nc(-c3ccccc3[N+](=O)[O-])nc(C(Cl)(Cl)Cl)n2)CC1 [Cmpd 548]	0.069	0.053	0.07
CN1CCN(c2nc(-c3ccccc3[N+](=O)[O-])nc(C(Cl)(Cl)Cl)n2)CC1 [Cmpd 549]	0.503	0.236	0.663
CN1CCC(Nc2nc(-c3ccccc3[N+](=O)[O-])nc(C(Cl)(Cl)Cl)n2)CC1 [Cmpd 550]	0.04805	0.02059	0.03585
CCN1CCC(CNc2nc(-c3ccccc3[N+](=O)[O-])nc(C(Cl)(Cl)Cl)n2)CC1 [Cmpd 551]	0.07027	0.0356	0.05653
O=[N+]([O-])c1ccccc1-c1nc(N2CCCN(CCO)CC2)nc(C(Cl)(Cl)Cl)n1 [Cmpd 552]	0.1704	0.07605	0.1756
CC1(C)C=Cc2cc(-c3nc(NCCN4CCCC4)nc(C(Cl)(Cl)Cl)n3)ccc2O1 [Cmpd 553]	0.01863	0.01506	0.01596
CN(C)CCCNc1nc(-c2ccc(Cl)cc2)nc(C(Cl)(Cl)Cl)n1 [Cmpd 560]	0.02	0.009	0.018
